This experiment concerns M. tuberculosis H37Rv. The experiment is described as follows: BACTEC method of in-vitro screening (growth index, radiometric 7H12 broth). The conditions noted are these: 100 μg/mL. It is filed as cell-based.

Consider `OC[C@H]1O[C@@](CO)(O[C@H]2O[C@H](CO)[C@@H](O)[C@H](O)[C@H]2O)[C@@H](O)[C@@H]1O` [sucrose], for which the inhibition of growth result is reported as “no inhibition”.
